Columns and labels:
Type in all cases: cell-based
Details in all cases: 24 hours of compound treatment, 50 nM and 500 nM tested (concentration behind the class not stated)
[1] = biological target: T1, WEE1 (Homo sapiens, UniProt P30291+Q96SW2); assay: Western-blot assay of substrate protein degradation in hPBMCs, WEE1
T1 construct: endogenous in cells; host or cells: hPBMCs (Milecell Biotechnologies)

[2] = biological target: T2, GSPT1 (Homo sapiens, UniProt P15170+Q96SW2); assay: Western-blot assay of substrate protein degradation in hPBMCs, GSPT1
T2 construct: endogenous in cells; host or cells: hPBMCs (Milecell Biotechnologies)

[3] = biological target: T3, IKZF2 (Homo sapiens, UniProt Q96SW2+Q9UKS7); assay: Western-blot assay of substrate protein degradation in hPBMCs, IKZF2
T3 construct: endogenous in cells; host or cells: hPBMCs (Milecell Biotechnologies)

[4] = biological target: T4, IKZF1 (Homo sapiens, UniProt Q13422+Q96SW2); assay: Western-blot assay of substrate protein degradation in hPBMCs, IKZF1
T4 construct: endogenous in cells; host or cells: hPBMCs (Milecell Biotechnologies)

[5] = biological target: T5, CK1α (Homo sapiens, UniProt P48729+Q96SW2); assay: Western-blot assay of substrate protein degradation in hPBMCs, CK1α
T5 construct: endogenous in cells; host or cells: hPBMCs (Milecell Biotechnologies)

[6] = biological target: T6, IKZF3 (Homo sapiens, UniProt Q96SW2+Q9UKT9); assay: Western-blot assay of substrate protein degradation in hPBMCs, IKZF3
T6 construct: endogenous in cells; host or cells: hPBMCs (Milecell Biotechnologies)
T6 sequence (Q9UKT9 whole entry): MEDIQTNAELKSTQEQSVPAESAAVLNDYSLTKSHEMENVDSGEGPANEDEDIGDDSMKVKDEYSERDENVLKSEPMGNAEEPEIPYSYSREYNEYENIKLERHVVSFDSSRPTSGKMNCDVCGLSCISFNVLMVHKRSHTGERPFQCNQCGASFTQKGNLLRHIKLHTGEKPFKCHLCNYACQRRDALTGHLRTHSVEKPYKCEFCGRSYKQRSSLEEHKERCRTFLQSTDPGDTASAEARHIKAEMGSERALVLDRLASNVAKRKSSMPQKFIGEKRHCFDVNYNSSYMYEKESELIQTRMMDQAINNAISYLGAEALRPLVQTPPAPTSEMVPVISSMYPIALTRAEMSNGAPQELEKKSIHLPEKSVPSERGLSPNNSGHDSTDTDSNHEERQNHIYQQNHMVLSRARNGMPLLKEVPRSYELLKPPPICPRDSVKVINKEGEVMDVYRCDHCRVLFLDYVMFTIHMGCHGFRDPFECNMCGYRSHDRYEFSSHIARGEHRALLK
T6 sequence (Q96SW2 whole entry): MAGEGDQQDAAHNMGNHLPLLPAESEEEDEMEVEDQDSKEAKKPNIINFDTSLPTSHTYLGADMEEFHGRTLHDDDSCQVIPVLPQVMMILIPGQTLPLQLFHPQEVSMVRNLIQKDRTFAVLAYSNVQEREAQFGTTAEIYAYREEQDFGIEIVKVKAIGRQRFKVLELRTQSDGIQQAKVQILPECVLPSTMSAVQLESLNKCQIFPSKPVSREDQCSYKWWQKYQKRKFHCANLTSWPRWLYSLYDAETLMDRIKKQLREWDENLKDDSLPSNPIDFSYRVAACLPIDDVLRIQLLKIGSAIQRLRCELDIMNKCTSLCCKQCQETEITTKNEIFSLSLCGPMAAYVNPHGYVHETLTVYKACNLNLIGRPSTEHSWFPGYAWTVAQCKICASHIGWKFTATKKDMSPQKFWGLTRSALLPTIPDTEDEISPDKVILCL
T6 sequence (Q16531 whole entry partner): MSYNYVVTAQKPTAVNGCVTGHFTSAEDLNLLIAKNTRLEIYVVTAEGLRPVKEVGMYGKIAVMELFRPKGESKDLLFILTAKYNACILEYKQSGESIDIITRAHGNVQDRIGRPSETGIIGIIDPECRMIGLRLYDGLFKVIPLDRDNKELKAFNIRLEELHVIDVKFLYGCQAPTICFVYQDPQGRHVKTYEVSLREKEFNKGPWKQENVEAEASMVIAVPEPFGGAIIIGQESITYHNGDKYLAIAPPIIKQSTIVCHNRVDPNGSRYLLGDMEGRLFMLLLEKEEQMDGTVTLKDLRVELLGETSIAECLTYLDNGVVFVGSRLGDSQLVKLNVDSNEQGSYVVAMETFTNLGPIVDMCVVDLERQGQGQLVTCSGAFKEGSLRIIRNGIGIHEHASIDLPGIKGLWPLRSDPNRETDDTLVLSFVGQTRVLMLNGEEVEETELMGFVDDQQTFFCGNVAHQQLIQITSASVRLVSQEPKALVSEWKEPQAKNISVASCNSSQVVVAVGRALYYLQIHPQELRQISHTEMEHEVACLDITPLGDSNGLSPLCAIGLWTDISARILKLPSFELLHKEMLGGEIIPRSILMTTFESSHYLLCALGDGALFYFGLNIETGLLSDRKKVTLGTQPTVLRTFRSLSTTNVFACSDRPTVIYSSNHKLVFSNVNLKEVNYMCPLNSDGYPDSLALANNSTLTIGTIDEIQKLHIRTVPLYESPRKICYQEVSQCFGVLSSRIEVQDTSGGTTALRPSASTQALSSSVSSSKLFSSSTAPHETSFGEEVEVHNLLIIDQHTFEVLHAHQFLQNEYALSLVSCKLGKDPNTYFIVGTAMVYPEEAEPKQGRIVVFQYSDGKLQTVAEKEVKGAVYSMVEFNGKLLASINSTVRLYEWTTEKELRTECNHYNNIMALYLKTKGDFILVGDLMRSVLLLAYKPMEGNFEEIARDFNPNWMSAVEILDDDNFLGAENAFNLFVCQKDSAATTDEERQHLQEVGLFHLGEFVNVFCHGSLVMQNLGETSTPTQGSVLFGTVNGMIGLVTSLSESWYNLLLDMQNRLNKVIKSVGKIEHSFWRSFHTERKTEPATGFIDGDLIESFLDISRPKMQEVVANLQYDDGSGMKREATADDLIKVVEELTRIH

T2 sequence (P15170 whole entry): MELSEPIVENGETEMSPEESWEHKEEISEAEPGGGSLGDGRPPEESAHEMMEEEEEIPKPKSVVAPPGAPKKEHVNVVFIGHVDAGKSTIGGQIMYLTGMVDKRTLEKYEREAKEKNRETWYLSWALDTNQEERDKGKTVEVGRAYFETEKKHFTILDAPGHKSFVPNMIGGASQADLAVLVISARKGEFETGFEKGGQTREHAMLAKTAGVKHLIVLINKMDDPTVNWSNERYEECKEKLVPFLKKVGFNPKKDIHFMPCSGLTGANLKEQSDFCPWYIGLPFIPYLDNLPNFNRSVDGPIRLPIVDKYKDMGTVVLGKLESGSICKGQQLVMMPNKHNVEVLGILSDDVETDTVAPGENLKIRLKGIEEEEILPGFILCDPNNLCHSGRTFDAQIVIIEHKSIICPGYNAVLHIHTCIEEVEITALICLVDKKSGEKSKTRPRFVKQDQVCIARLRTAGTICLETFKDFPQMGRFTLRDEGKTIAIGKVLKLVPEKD
T2 sequence (Q96SW2 whole entry): as the sequence (Q96SW2 whole entry) above
T2 sequence (Q16531 whole entry partner): as the sequence (Q16531 whole entry partner) above
T1 sequence (P30291 whole entry): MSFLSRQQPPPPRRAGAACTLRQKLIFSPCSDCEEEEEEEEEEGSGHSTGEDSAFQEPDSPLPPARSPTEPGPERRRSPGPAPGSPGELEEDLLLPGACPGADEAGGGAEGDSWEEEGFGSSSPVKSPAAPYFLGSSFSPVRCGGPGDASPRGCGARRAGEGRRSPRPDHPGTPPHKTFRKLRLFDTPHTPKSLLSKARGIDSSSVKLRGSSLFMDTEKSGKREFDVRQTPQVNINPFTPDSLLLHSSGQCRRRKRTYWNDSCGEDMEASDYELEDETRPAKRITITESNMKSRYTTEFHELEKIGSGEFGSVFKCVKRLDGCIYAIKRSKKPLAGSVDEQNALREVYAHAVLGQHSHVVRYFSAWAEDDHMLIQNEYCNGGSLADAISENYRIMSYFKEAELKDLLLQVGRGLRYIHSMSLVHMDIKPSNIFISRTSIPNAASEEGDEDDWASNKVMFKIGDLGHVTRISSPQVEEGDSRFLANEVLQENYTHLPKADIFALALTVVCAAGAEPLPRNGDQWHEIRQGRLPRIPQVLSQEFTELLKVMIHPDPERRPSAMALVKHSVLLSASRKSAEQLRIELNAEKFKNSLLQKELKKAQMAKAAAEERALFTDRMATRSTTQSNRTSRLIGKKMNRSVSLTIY
T1 sequence (Q96SW2 whole entry): as the sequence (Q96SW2 whole entry) above
T1 sequence (Q16531 whole entry partner): as the sequence (Q16531 whole entry partner) above
T5 sequence (P48729 whole entry): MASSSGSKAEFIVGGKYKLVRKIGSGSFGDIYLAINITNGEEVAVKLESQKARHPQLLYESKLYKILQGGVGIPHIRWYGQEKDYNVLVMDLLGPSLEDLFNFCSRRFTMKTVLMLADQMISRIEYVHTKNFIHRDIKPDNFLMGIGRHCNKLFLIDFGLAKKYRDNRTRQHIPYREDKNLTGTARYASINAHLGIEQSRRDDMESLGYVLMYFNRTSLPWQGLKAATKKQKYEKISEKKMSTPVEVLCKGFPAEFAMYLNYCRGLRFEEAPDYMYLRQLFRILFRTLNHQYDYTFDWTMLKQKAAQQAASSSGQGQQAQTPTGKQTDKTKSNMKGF
T5 sequence (Q96SW2 whole entry): as the sequence (Q96SW2 whole entry) above
T5 sequence (Q16531 whole entry partner): as the sequence (Q16531 whole entry partner) above
T4 sequence (Q13422 whole entry): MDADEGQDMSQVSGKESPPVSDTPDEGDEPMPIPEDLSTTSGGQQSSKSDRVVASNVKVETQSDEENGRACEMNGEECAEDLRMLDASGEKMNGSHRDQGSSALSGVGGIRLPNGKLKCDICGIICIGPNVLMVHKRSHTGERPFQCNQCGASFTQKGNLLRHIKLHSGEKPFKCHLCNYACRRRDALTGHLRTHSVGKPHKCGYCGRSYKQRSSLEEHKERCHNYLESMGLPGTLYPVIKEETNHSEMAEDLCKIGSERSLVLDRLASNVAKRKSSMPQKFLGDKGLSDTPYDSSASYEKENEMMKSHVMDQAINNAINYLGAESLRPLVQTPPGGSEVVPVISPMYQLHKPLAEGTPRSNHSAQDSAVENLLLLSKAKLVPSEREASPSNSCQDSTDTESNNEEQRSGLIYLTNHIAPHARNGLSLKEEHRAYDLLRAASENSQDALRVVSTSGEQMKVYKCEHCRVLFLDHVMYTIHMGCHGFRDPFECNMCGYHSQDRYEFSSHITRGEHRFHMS
T4 sequence (Q96SW2 whole entry): as the sequence (Q96SW2 whole entry) above
T4 sequence (Q16531 whole entry partner): as the sequence (Q16531 whole entry partner) above

Row | Compound | Weel substrate protein remaining % [1] | GSPT1 substrate protein remaining % [2] | IKZF2 substrate protein remaining % [3] | IKZF 1 substrate protein remaining % [4] | CK1a substrate protein remaining % [5] | IKZF3 substrate protein remaining % [6]
1 | O=C1CCC(N2C(=O)c3ccc(CN4CCC(c5nccc(Cl)c5Cl)CC4)cc3C2=O)C(=O)N1 (stereo not drawn) [GT-06607, 5-((4-(3,4-dichloropyridin-2-yl)piperidin-1-yl)methyl)-2-(2,6-dioxopiperidin-3-yl)isoindoline-1,3-dione] | B (80%< substrate protein remaining %≤ 100%) | A (0% ≤ substrate protein remaining % ≤ 80%) | B (80%< substrate protein remaining %≤ 100%) | B (80%< substrate protein remaining %≤ 100%) | B (80%< substrate protein remaining %≤ 100%) | B (80%< substrate protein remaining %≤ 100%)
2 | O=C1CCC(N2C(=O)c3ccc(CN4CCC(c5ccnc(F)c5F)CC4)cc3C2=O)C(=O)N1 (stereo not drawn) [GT-06613, 5-((4-(2,3-difluoropyridin-4-yl)piperidin-1-yl)methyl)-2-(2,6-dioxopiperidin-3-yl)isoindoline-1,3-dione] | B (80%< substrate protein remaining %≤ 100%) | A (0% ≤ substrate protein remaining % ≤ 80%) | B (80%< substrate protein remaining %≤ 100%) | B (80%< substrate protein remaining %≤ 100%) | B (80%< substrate protein remaining %≤ 100%) | B (80%< substrate protein remaining %≤ 100%)
3 | O=C1CCC(N2C(=O)c3ccc(CN4CCC(c5ccnc(Cl)c5Cl)CC4)cc3C2=O)C(=O)N1 (stereo not drawn) [GT-06615, 5-((4-(2,3-dichloropyridin-4-yl)piperidin-1-yl)methyl)-2-(2,6-dioxopiperidin-3-yl)isoindoline-1,3-dione] | A (0% ≤ substrate protein remaining % ≤ 80%) | A (0% ≤ substrate protein remaining % ≤ 80%) | B (80%< substrate protein remaining %≤ 100%) | B (80%< substrate protein remaining %≤ 100%) | A (0% ≤ substrate protein remaining % ≤ 80%) | A (0% ≤ substrate protein remaining % ≤ 80%)
4 | O=C1CCC(N2C(=O)c3ccc(CN4CCN(c5ccnc(Cl)c5)CC4)cc3C2=O)C(=O)N1 (stereo not drawn) [GT-06619, 5-((4-(2-chloropyridin-4-yl)piperazin-1-yl)methyl)-2-(2,6-dioxopiperidin-3-yl)isoindoline-1,3-dione] | B (80%< substrate protein remaining %≤ 100%) | A (0% ≤ substrate protein remaining % ≤ 80%) | B (80%< substrate protein remaining %≤ 100%) | B (80%< substrate protein remaining %≤ 100%) | B (80%< substrate protein remaining %≤ 100%) | A (0% ≤ substrate protein remaining % ≤ 80%)
5 | O=C1CCC(N2C(=O)c3ccc(CN4CCC(c5noc6ccccc56)CC4)cc3C2=O)C(=O)N1 (stereo not drawn) [GT-06627, 5-((4-(benzo[d]isoxazol-3-yl)piperidin-1-yl)methyl)-2-(2,6-dioxopiperidin-3-yl)isoindoline-1,3-dione] | B (80%< substrate protein remaining %≤ 100%) | A (0% ≤ substrate protein remaining % ≤ 80%) | B (80%< substrate protein remaining %≤ 100%) | B (80%< substrate protein remaining %≤ 100%) | B (80%< substrate protein remaining %≤ 100%) | B (80%< substrate protein remaining %≤ 100%)
6 | O=C1CCC(N2C(=O)c3ccc(CN4CCC(c5ccon5)CC4)cc3C2=O)C(=O)N1 (stereo not drawn) [GT-06628, 2-(2,6-dioxopiperidin-3-yl)-5-((4-(isoxazol-3-yl)piperidin-1-yl)methyl)isoindoline-1,3-dione] | B (80%< substrate protein remaining %≤ 100%) | A (0% ≤ substrate protein remaining % ≤ 80%) | B (80%< substrate protein remaining %≤ 100%) | B (80%< substrate protein remaining %≤ 100%) | B (80%< substrate protein remaining %≤ 100%) | B (80%< substrate protein remaining %≤ 100%)
7 | O=C1CCC(N2C(=O)c3ccc(CN4CCN(c5noc6cc(F)ccc56)CC4)cc3C2=O)C(=O)N1 (stereo not drawn) [GT-06629, 2-(2,6-dioxopiperidin-3-yl)-5-((4-(6-fluorobenzo[d]isoxazol-3-yl)piperazin-1-yl)methyl)isoindoline-1,3-dione] | A (0% ≤ substrate protein remaining % ≤ 80%) | A (0% ≤ substrate protein remaining % ≤ 80%) | A (0% ≤ substrate protein remaining % ≤ 80%) | B (80%< substrate protein remaining %≤ 100%) | A (0% ≤ substrate protein remaining % ≤ 80%) | B (80%< substrate protein remaining %≤ 100%)
8 | O=C1CCC(N2C(=O)c3ccc(CN4CCN(c5noc6ccncc56)CC4)cc3C2=O)C(=O)N1 (stereo not drawn) [GT-06630, 2-(2,6-dioxopiperidin-3-yl)-5-((4-(isoxazolo[4,5-c]pyridin-3-yl)piperazin-1-yl)methyl)isoindoline-1,3-dione] | A (0% ≤ substrate protein remaining % ≤ 80%) | A (0% ≤ substrate protein remaining % ≤ 80%) | A (0% ≤ substrate protein remaining % ≤ 80%) | B (80%< substrate protein remaining %≤ 100%) | A (0% ≤ substrate protein remaining % ≤ 80%) | B (80%< substrate protein remaining %≤ 100%)
9 | Cc1nc(C2CCN(Cc3ccc4c(c3)C(=O)N(C3CCC(=O)NC3=O)C4=O)CC2)c2ccsc2n1 (stereo not drawn) [GT-06647, 2-(2,6-dioxopiperidin-3-yl)-5-((4-(2-methylthieno[2,3-d]pyrimidin-4-yl)piperidin-1-yl)methyl)isoindoline-1,3-dione] | A (0% ≤ substrate protein remaining % ≤ 80%) | A (0% ≤ substrate protein remaining % ≤ 80%) | A (0% ≤ substrate protein remaining % ≤ 80%) | B (80%< substrate protein remaining %≤ 100%) | A (0% ≤ substrate protein remaining % ≤ 80%) | B (80%< substrate protein remaining %≤ 100%)
10 | Cc1nc(C2CCN(Cc3ccc4c(c3)C(=O)N(C3CCC(=O)NC3=O)C4=O)CC2)c2c3c(sc2n1)CCCC3 (stereo not drawn) [GT-06648, 2-(2,6-dioxopiperidin-3-yl)-5-((4-(2-methyl-5,6,7,8-tetrahydrobenzo[4,5]thieno[2,3-d]pyrimidin-4-yl)piperidin-1-yl)methyl)isoindoline-1,3-dione] | A (0% ≤ substrate protein remaining % ≤ 80%) | A (0% ≤ substrate protein remaining % ≤ 80%) | A (0% ≤ substrate protein remaining % ≤ 80%) | B (80%< substrate protein remaining %≤ 100%) | A (0% ≤ substrate protein remaining % ≤ 80%) | B (80%< substrate protein remaining %≤ 100%)

Reference: patent EP4745137A1 (Gluetacs Therapeutics (Shanghai) Co., Ltd., priority 2023, dated 2025)
